Data published in BigSolDB 2.1.

CC1(C)COP(=O)(O)OC1c1ccccc1Cl (centres undefined)
solubility (mole fraction)
Conditions | in acetic acid | in ethanol | in isopropanol | in methanol | in tert-butanol | in water
278.15 K | – | 0.00426 | 0.0114 | 0.00445 | – | 0.000124
283.15 K | – | 0.00473 | 0.0135 | 0.00519 | – | 0.000123
288.15 K | – | 0.00536 | 0.016 | 0.00572 | – | 0.000136
293.15 K | 0.00131 | 0.00614 | 0.0176 | 0.00644 | – | 0.000157
298.15 K | 0.00156 | 0.00685 | 0.0207 | 0.00713 | – | 0.000162
303.15 K | 0.00186 | 0.00783 | 0.0251 | 0.00809 | 0.0228 | 0.000164
308.15 K | 0.00221 | 0.00884 | 0.029 | 0.00892 | 0.0281 | 0.000166
313.15 K | 0.0025 | 0.00995 | 0.0342 | 0.0105 | 0.0313 | 0.000168
318.15 K | 0.00277 | 0.0121 | 0.0391 | 0.0125 | 0.0359 | 0.00017
323.15 K | 0.00341 | 0.0135 | 0.0448 | 0.0145 | 0.0398 | –
328.15 K | 0.0039 | – | – | – | 0.0469 | –
333.15 K | 0.00449 | – | – | – | 0.051 | –
338.15 K | 0.00523 | – | – | – | 0.0574 | –
343.15 K | – | – | – | – | 0.0629 | –
348.15 K | – | – | – | – | 0.0691 | –
